Columns and labels:
[1] = target: T1, AmpC EC2 (Escherichia coli, UniProt A7TUE6); assay: nitrocefin hydrolysis initial velocity at […] ([…] inhibition range for the set); type: biochemical
[2] = target: T2, CMY-10 (Klebsiella aerogenes, UniProt Q99QC1); assay: nitrocefin hydrolysis initial velocity at […] NADPH; type: biochemical
T2 construct: gene blaCMY-10

[3] = target: T3, CMY-2 (Klebsiella pneumoniae, UniProt Q48434); assay: nitrocefin hydrolysis initial velocity at […] NADPH; type: biochemical
T3 construct: gene blaCMY-2

[4] = target: T1, AmpC EC2; assay: nitrocefin hydrolysis initial velocity at […] NADPH; type: biochemical
[5] = target: T1, AmpC EC2; assay: ITC (KD […]); also steady-state nitrocefin kinetics (competitive, Ki […]); type: binding

| SMILES | nitrocefin hydrolysis initial velocity at 2 mM (~15-55% inhibition range for the) [1] | nitrocefin hydrolysis initial velocity at 2 mM NADPH [2] | nitrocefin hydrolysis initial velocity at 2 mM NADPH [3] | nitrocefin hydrolysis initial velocity at 2 mM NADPH [4] | Kd [5] [µM] |
| --- | --- | --- | --- | --- | --- |
| Cc1cc2nc3c(=O)[nH]c(=O)nc-3n(C[C@H](O)[C@H](O)[C@H](O)COP(=O)(O)OP(=O)(O)OC[C@H]3O[C@@H](n4cnc5c(N)ncnc54)[C@H](O)[C@@H]3O)c2cc1C [FAD] | all tested adenosine dinucleotides including FAD, NAD, NADP, and NADPH reduced the initial velocity of nitrocefin hydrolysis catalyzed by AmpC BER |  |  |  |  |
| NC(=O)C1=CN([C@@H]2O[C@H](COP(=O)(O)OP(=O)(O)OC[C@H]3O[C@@H](n4cnc5c(N)ncnc54)[C@H](OP(=O)(O)O)[C@@H]3O)[C@@H](O)[C@H]2O)C=CC1 [NADPH] |  | NADPH also reduced the initial velocity of nitrocefin hydrolysis catalyzed by other class C β-lactamases including ACC-1, AmpC EC2, CMY-2, and CMY-10 | NADPH also reduced the initial velocity of nitrocefin hydrolysis catalyzed by other class C β-lactamases including ACC-1, AmpC EC2, CMY-2, and CMY-10 | NADPH also reduced the initial velocity of nitrocefin hydrolysis catalyzed by other class C β-lactamases including ACC-1, AmpC EC2, CMY-2, and CMY-10 | 40 |
| NC(=O)c1ccc[n+]([C@@H]2O[C@H](COP(=O)([O-])OP(=O)(O)OC[C@H]3O[C@@H](n4cnc5c(N)ncnc54)[C@H](O)[C@@H]3O)[C@@H](O)[C@H]2O)c1 [NAD] | all tested adenosine dinucleotides including FAD, NAD, NADP, and NADPH reduced the initial velocity of nitrocefin hydrolysis catalyzed by AmpC BER |  |  |  |  |

From paper PMC6308799, “In vitro and in vivo Inhibitory Activity of NADPH Against the AmpC BER Class C β-Lactamase” (Frontiers in Cellular and Infection Microbiology, 2018)
